# Experiments:
# [1] = tested on: suspension cells from Siraitia grosvenorii; test: Measurement of mitochondrial activity (TTC) after cryopreservation; assay type: cell-based; conditions: for TTC value score: per-level statistic of Table 1; for TTC value/100 mg of cells: -80° C. 24 h
# Protocol: After mixing evenly, performing dark culture at 25° C. for 16 h. After the dark culture, the supernatant is removed by centrifugation and the cells are washed with distilled water three times. Adding with 4 mL of methanol and placing in a 60° C. water bath for 50 min, gently blow twice with a pipette tip until the cells have detached to colourless.
# [2] = tested on: suspension cells from Siraitia grosvenorii; test: Cell viability evaluation by viable cell monitor (viable cell capacitance, viability preservation rate after cryopreservation); assay type: cell-based; conditions: for A1 (viable cell capacitance of the pre-treated cell): before freezing; for A3 (basal capacitance of the cell): cell death totally; for A2 (viable cell capacitance after resuscitation) / Viability preservation rate: -80° C. 24 h
# Protocol: Taking a certain number of cells in the logarithmic growth phase for centrifugation (or sedimentation) and adding an equal amount of pre-treatment fluids after removing the supernatant. […] Pre-treated cells are centrifuged. Adding cryoprotectants after removing the supernatant and incubating at 0-4° C. and 110 rpm for 45 min. After incubation, the cells are first cooled at −20° C. for 40 min and then cooled in the −80° C. cryogenic refrigerator. Frozen cells are thawed in a water bath at 39° C., for 2-3 min. […] Mixing evenly the suspension cells and then measuring the capacitance of viable cells with a viable cell monitor. The viable cell capacitance of the pre-treated cell is denoted as A1; the viable cell capacitance after resuscitation is denoted as A2; and the basal capacitance of the cell is denoted as A3 (capacitance when cell death totally). […] The basic capacitance of cells: the cell suspension is boiled in boiling water for 1 h, and then subjected to ultrasonication for 40 min. The capacitance measured is the basic capacitance.
# [3] = Siraitia grosvenorii, 45 min, 5 %
# [4] = Siraitia grosvenorii, 45 min, 10 %
# [5] = 0.2 M sucrose as pre-treatment agent, cryoprotectant liquid medium+10% DMSO+10% sucrose, compared with the control without pre-treatment
# [6] = 0.2 M sucrose pre-treatment time 1 h, liquid medium+10% DMSO+10% sucrose
# [7] = 0.2 M sucrose pre-treatment time 2 h, liquid medium+10% DMSO+10% sucrose
# [8] = 0.2 M sucrose pre-treatment time 5 h, liquid medium+10% DMSO+10% sucrose
# [9] = 0.2 M sucrose pre-treatment time 9 h, liquid medium+10% DMSO+10% sucrose
# [10] = 0.2 M sucrose pre-treatment time 22 h, liquid medium+10% DMSO+10% sucrose
# [11] = 0.2 M sucrose pre-treatment time 46 h, liquid medium+10% DMSO+10% sucrose
# [12] = pre-treatment agent 0.2M, frozen medium liquid medium+10% DMSO+10% sucrose
# [13] = pre-treatment agent 0.35M, frozen medium liquid medium+10% DMSO+10% sucrose
# [14] = pre-treatment agent 0.5M, frozen medium liquid medium+10% DMSO+10% sucrose
# [15] = 0.2 M sucrose pre-treatment time 1 h
# [16] = 0.2 M sucrose pre-treatment time 2 h
# [17] = 0.2 M sucrose pre-treatment time 5 h
# [18] = 0.2 M sucrose pre-treatment time 9 h
# [19] = 0.2 M sucrose pre-treatment time 22 h
# [20] = 0.2 M sucrose pre-treatment time 46 h
structure (smiles),measurement,setting,value
"C[S+](C)[O-] [DMSO, dimethyl sulfoxide]",TTC value score,[1]; cryoprotectant level 5%,0.633
same,TTC value score,[1]; cryoprotectant level 10%,0.792
same,Viability preservation rate score,[2]; [3],35.90%
same,Viability preservation rate score,[2]; [4],37.09%
"OC[C@H]1O[C@@](CO)(O[C@H]2O[C@H](CO)[C@@H](O)[C@H](O)[C@H]2O)[C@@H](O)[C@@H]1O [Sucrose, sucrose]",increase of mitochondrial activity (TTC value),[1]; [5],36.72%
same,TTC value/100 mg of cells,[1]; [6],0.195
same,TTC value/100 mg of cells,[1]; [7],0.201
same,TTC value/100 mg of cells,[1]; [8],0.225
same,TTC value/100 mg of cells,[1]; [9],0.376
same,TTC value/100 mg of cells,[1]; [10],0.319
same,TTC value/100 mg of cells,[1]; [11],0.106
same,TTC value score,[1]; cryoprotectant level 5%,0.506
same,TTC value score,[1]; cryoprotectant level 10%,0.847
same,TTC value/100 mg of cells,[1]; [12],0.916
same,TTC value/100 mg of cells,[1]; [13],0.479
same,TTC value/100 mg of cells,[1]; [14],0.232
same,increase of cell viability preservation rate,[2]; [5],29.18%
same,A1 (viable cell capacitance of the pre-treated cell),[2]; [15],62.11 pF/cm
same,A3 (basal capacitance of the cell),[2]; [15],8.41 pF/cm
same,A2 (viable cell capacitance after resuscitation),[2]; [6],14.46 pF/cm
same,A1 (viable cell capacitance of the pre-treated cell),[2]; [16],61.68 pF/cm
same,A3 (basal capacitance of the cell),[2]; [16],8.78 pF/cm
same,A2 (viable cell capacitance after resuscitation),[2]; [7],15.63 pF/cm
same,A1 (viable cell capacitance of the pre-treated cell),[2]; [17],61.19 pF/cm
same,A3 (basal capacitance of the cell),[2]; [17],11.09 pF/cm
same,A2 (viable cell capacitance after resuscitation),[2]; [8],21.21 pF/cm
same,A1 (viable cell capacitance of the pre-treated cell),[2]; [18],58.51 pF/cm
same,A3 (basal capacitance of the cell),[2]; [18],11.3 pF/cm
same,A2 (viable cell capacitance after resuscitation),[2]; [9],25.85 pF/cm
same,A1 (viable cell capacitance of the pre-treated cell),[2]; [19],56.48 pF/cm
same,A3 (basal capacitance of the cell),[2]; [19],10.43 pF/cm
same,A2 (viable cell capacitance after resuscitation),[2]; [10],22.86 pF/cm
same,A1 (viable cell capacitance of the pre-treated cell),[2]; [20],45.92 pF/cm
same,A3 (basal capacitance of the cell),[2]; [20],10.94 pF/cm
same,A2 (viable cell capacitance after resuscitation),[2]; [11],14.60 pF/cm
same,Viability preservation rate score,[2]; [3],31.15%
same,Viability preservation rate score,[2]; [4],42.98%
same,A1 (viable cell capacitance of the pre-treated cell),[2]; pre-treatment agent 0.2M,42.25 pF/cm
same,A3 (basal capacitance of the cell),[2]; pre-treatment agent 0.2M,10.00 pF/cm
same,A2 (viable cell capacitance after resuscitation),[2]; [12],26.44 pF/cm
same,A1 (viable cell capacitance of the pre-treated cell),[2]; pre-treatment agent 0.35M,30.55 pF/cm
same,A3 (basal capacitance of the cell),[2]; pre-treatment agent 0.35M,8.49 pF/cm
same,A2 (viable cell capacitance after resuscitation),[2]; [13],17.01 pF/cm
same,A1 (viable cell capacitance of the pre-treated cell),[2]; pre-treatment agent 0.5M,24.62 pF/cm
same,A3 (basal capacitance of the cell),[2]; pre-treatment agent 0.5M,6.03 pF/cm
same,A2 (viable cell capacitance after resuscitation),[2]; [14],11.81 pF/cm
"OC[C@H]1O[C@H](O[C@H]2O[C@H](CO)[C@@H](O)[C@H](O)[C@H]2O)[C@H](O)[C@@H](O)[C@@H]1O [Trehalose, trehalose]",TTC value/100 mg of cells,[1]; [12],0.767
same,TTC value/100 mg of cells,[1]; [13],0.841
same,TTC value/100 mg of cells,[1]; [14],0.224
same,A1 (viable cell capacitance of the pre-treated cell),[2]; pre-treatment agent 0.2M,41.05 pF/cm
same,A3 (basal capacitance of the cell),[2]; pre-treatment agent 0.2M,7.77 pF/cm
same,A2 (viable cell capacitance after resuscitation),[2]; [12],23.40 pF/cm
same,Viability preservation rate,[2]; [12],46.97%
same,A1 (viable cell capacitance of the pre-treated cell),[2]; pre-treatment agent 0.35M,34.06 pF/cm
same,A3 (basal capacitance of the cell),[2]; pre-treatment agent 0.35M,7.09 pF/cm
same,A2 (viable cell capacitance after resuscitation),[2]; [13],18.80 pF/cm
same,Viability preservation rate,[2]; [13],43.42%
same,A1 (viable cell capacitance of the pre-treated cell),[2]; pre-treatment agent 0.5M,21.20 pF/cm
same,A3 (basal capacitance of the cell),[2]; pre-treatment agent 0.5M,5.50 pF/cm
same,A2 (viable cell capacitance after resuscitation),[2]; [14],10.65 pF/cm
same,Viability preservation rate,[2]; [14],32.80%
OC[C@@H](O)[C@@H](O)[C@H](O)[C@@H](O)CO [sorbitol],TTC value score,[1]; cryoprotectant level 5%,0.652
same,TTC value score,[1]; cryoprotectant level 10%,0.846
same,Viability preservation rate score,"[2]; cryoprotectant level 5%, per-level statistic of Table 1",31.20%
same,Viability preservation rate score,"[2]; cryoprotectant level 10%, per-level statistic of Table 1",40.65%
